Laboratory results as given in patent US20150119792A1, “LIGHT DEGRADABLE DRUG DELIVERY SYSTEM FOR OCULAR THERAPY” (priority 2012, published 2015).

Key:
Raw 264.7 cells = experiment: Light-triggered release of FDA from nanoparticles, cell fluorescence (imaging, plate reader); format: cell-based; settings: UV irradiation, free FDA
Procedure: The dye selected for these studies was Fluorescein Diacetate (FDA), which is an ester of fluorescein. […] Nanoparticles containing FDA were formulated through an inverse emulsion/solvent evaporation process. […] The resulting solution was added to a larger volume of 1% solution of polyvinyl alcohol (PVA) and probe sonicated to form the emulsion. The organic solvent was then evaporated under vacuum, and PVA removed by tangential flow ultrafiltration. The resulting solution was then freeze-dried with mannitol as cryoprotectant. The resulting particles were characterized by dynamic light scattering (DLS) and scanning electron microscopy (SEM). The encapsulation efficiency was evaluated by liquid-liquid extraction of FDA from particles and fluorescence measurements. […] As a more quantitative assay, we measured the amount of fluorescence of the cells using a plate reader (same cell count in each well). […] FIG. 4 is a bar graph showing the measured fluorescence for irradiated and non-irradiated Raw 264.7 cells. The cells in irradiated wells show higher fluorescence due to triggered release of payload (dark bars) as compared to cells in non-irradiated wells (light bars). […] We found an 18-fold increase in fluorescence upon irradiation as compared to the non-irradiated control in Raw 264.7 macrophage cell line, as well as a 3-fold increase upon irradiation in retinal cell line.

[1] = Visual and microscopic inspection of the eye after intra-vitreous injection; format: in vivo, Sprague-Dawley albino rats; settings: compared with PBS buffer (left eye)
Procedure: WO2011/038117. Initial in vivo testing on a rat model (Sprague-Dawley albino rats) was performed to determine the biocompatibility of the empty polymer particles without encapsulated cargo. This involved intra-vitreous injection of different concentrations of the light-degradable particles (“NP low” and “NP high” test categories in FIG. 2A) as well as different concentrations of nanoparticles composed of a known biocompatible material (PLGA). In each animal, the test material was injected into the right eye while a phosphate buffered solution (PBS) was injected into the left eye as a negative control. Additionally, animals were administered nanoparticle solutions that had previously been irradiated with UV light (˜350 nm) to determine any deleterious effects of the degradation byproducts (“NP low+UV” and “NP high+UV”.) Lipopolysaccharide (LPS) was injected in another group as a positive control as it is known to cause inflammation. […] FIG. 2A illustrates the intra-ocular pressure (IOP) data for these tests, with each group of bars, with the bars proceeding from left to right in the figure, corresponding to pre-operative IOP, drug (nanoparticle) day 1, PBS at day 1 after injection, drug (nanoparticle) day 4 after injection, PBS day 4, drug day 5, PBS day 5 etc. up to day 7 after injection. […] Second, the intra-ocular pressure was measured daily. […]

Row | Molecule | bleaching of FDA by irradiation (Raw 264.7 cells) | visual and microscopic inspection of the eye [1]
1 | CC(=O)Oc1ccc2c(c1)Oc1cc(OC(C)=O)ccc1C21OC(=O)c2ccccc21 [FDA, Fluorescein Diacetate] | does not cause significant bleaching | 
2 | Lipopolysaccharide [LPS] |  | caused tearing
